Reference: US8865901B2, “Gain-of-function Bcl-2 inhibitors” (priority 2009, dated 2014)
Where “and” joins values, the source holds several entries; their conditions need not be identical. Equal entries are not always repeated. Where two headings read alike, the source gives them in different places.

Legend:
[1] = tested on: TAMH cells transfected with Neo vector (Neo); experiment: Cytotoxicity / apoptosis induction in TAMH cells transfected with Neo vector; format: cell-based; conditions: for IC50: read-out: IC50 TAMH Neo
Protocol: (§1) To examine the sensitivity of cells over-expressing Bcl-xL to various mitochondrial inhibitors and apoptosis inducers, cell lines over-expressing Bcl-xL were prepared and tested according to Hockenberry et al. U.S. Pat. No. 7,241,804, hereby incorporated by reference in its entirety. Competitive binding of compounds with fluorescent antimycin A3, and competitive binding of compounds with BH3 peptide and Bcl-2. Competitive binding of compounds with BH-3 peptide were also measured using Bcl-xL as previously described. Id.
(§2) Cell lines were grown in RPMI 1640 medium (Gibco, Grand Island, N.Y.) supplemented with 5% fetal bovine serum (Hyclone, Logan, Utah). Also shown is the ratio of TAMH cells expressing Bcl-xL to those expressing A142L (WT:142L). The assay measures the potency of various compounds with respect to inducing apoptosis in these cells.
(§3) The compounds described in Example 2 were tested for their ability to inhibit Bcl-2 gain-of-function in TAMH cells, TAMH cells overexpressing […] (TAMH-Bcl-xL), TAMH cells transfected with Neo vector (Neo), TAMH cells over expressing a variant of Bcl-xL (A142L) using the methods of Example 1. 3-6.
(§4) The effects of the compounds described in Example 8 on TAMH cells, TAMH cells overexpressing Bcl-xL (TAMH-Bcl-xL), TAMH cells transfected with Neo vector (Neo), TAMH cells over expressing a variant of Bcl-xL (A142L) is shown in Table 8
(§5) The effects of the compounds described in Example 10 on TAMH cells, TAMH cells overexpressing Bcl-xL (TAMH-Bcl-xL), TAMH cells transfected with Neo vector (Neo), TAMH cells over expressing a variant of Bcl-xL (A142L) is shown in the following Table 10

[2] = tested on: TAMH cells overexpressing Bcl-xL (TAMH-Bcl-xL, Tabx2s); experiment: Cytotoxicity / apoptosis induction in TAMH cells overexpressing Bcl-xL; format: cell-based; conditions: for Neo/Bcl-xL: selectivity ratio
Protocol: as §1, §2, §3, §4, §5

[3] = Table 10, read-out: IC50 TAMH Bcl-XL
[4] = Table 15, read-out: IC50 TAMH Bcl-XL
[5] = Table 5, TAMH Neo cells, read-out: Neo EC50
[6] = Table 5, TAMH cells overexpressing Bcl-xL (Tabx2s), read-out: 2S EC50
[7] = Table 13, read-out: IC50 TAMH Bcl-xL

## Cc1cc(O)c(Sc2c(O)cc(C)cc2C(C)(C)C)c(C(C)(C)C)c1 [Compound 59685]
[1]; Table 10
  IC50: 66.4 µM
[2]; Table 10
  Fold Select. (Neo/Bcl-XL): 5.5
[2]; [3]
  IC50: 12 µM

## CC(=O)c1cc(Cc2cc(C)cc(C)c2O)c(O)c(Cc2cc(C)cc(C)c2O)c1 [Compound 48705]
[2]; Table 13
  Fold Select. (Neo/Bcl-xL): 0

## Oc1ccc(Cl)cc1Sc1cc(Cl)ccc1O [Compound 55636]
[1]; Table 8, read-out: TANH Neo
  EC50: 14.7 µM
[1]; Table 10
  IC50: 14.7 µM
[2]; Table 8, read-out: TAMH Bcl-xL
  EC50: 1.9 µM
[2]; Table 8
  Neo/Bcl-xL: 7.7
[2]; Table 10
  Fold Select. (Neo/Bcl-XL): 7.7
[2]; [3]
  IC50: 1.9 µM

## O=[N+]([O-])c1ccc(S(=O)(=O)C2CCCCC2Cl)c([N+](=O)[O-])c1 (centres unmarked) [Compound 405645]
[1]; Table 15
  IC50: 6.1 µM
[2]; Table 15
  Fold Selectivity (Neo/Bcl-XL): 2.1
[2]; [4]
  IC50: 2.9 µM

## [O-][S+](c1cc(Cl)cc(Cl)c1O)c1cc(Cl)cc(Cl)c1O [Compound 523910]
[1]; Table 10
  IC50: 14.2 µM
[2]; Table 10
  Fold Select. (Neo/Bcl-XL): 6.4
[2]; [3]
  IC50: 2.2 µM

## Oc1ccc(Br)cc1Sc1cc(Br)ccc1O [Compound 1049]
[1]; Table 10
  IC50: 4.2 µM
[2]; Table 10
  Fold Select. (Neo/Bcl-XL): 2.2
[2]; [3]
  IC50: 1.9 µM

## CN(Cc1cc(Cl)cc(Cl)c1O)Cc1c(O)ccc2ccccc12 [Compound 85479]
[1]; Table 18, read-out: Neo
  EC50: 14.5 µM
[2]; Table 18
  Neo/Bcl-XL: 5.8
[2]; Table 18, read-out: Bcl-XL
  EC50: 2.5 µM

## CN(C)Cc1cc(Cl)cc(Sc2cc(Cl)cc(CN(C)C)c2O)c1O [Compound 62419]
[1]; Table 10
  IC50: 36.1 µM
[2]; Table 10
  Fold Select. (Neo/Bcl-XL): 1.8
[2]; [3]
  IC50: 20 µM

## COc1ccc(C)cc1Cc1cc(C)cc(Cc2cc(C)ccc2O)c1OC [Compound 0036]
[1]; [5]
  EC50: 17.5 µM
[2]; [6]
  EC50: 1.9 µM

## COc1cc(C)ccc1C(=O)c1ccc(C)cc1OC [Compound 143532]
[2]; Table 11
  Fold Select. (Neo/Bcl-XL): 0

## Cc1cc(Cl)cc(Cc2cc(Cl)cc(C)c2O)c1O [Compound 77122]
[1]; Table 10
  IC50: 6.6 µM
[2]; Table 10
  Fold Select. (Neo/Bcl-XL): 3.3
[2]; [3]
  IC50: 2 µM

## CC(C)c1ccc(Sc2ccc(C(C)C)cc2O)c(O)c1 [Compound 39635]
[1]; Table 10
  IC50: 7.8 µM
[2]; Table 10
  Fold Select. (Neo/Bcl-XL): 1.3
[2]; [3]
  IC50: 4.3 µM

## Oc1ccc(Cl)cc1Cc1cc(Cl)cc(Cc2cc(Cl)ccc2O)c1O [Compound 47932]
[1]; Table 8, read-out: TANH Neo
  EC50: 3.5 µM
[1]; Table 13
  IC50: 3.5 µM
[2]; Table 8, read-out: TAMH Bcl-xL
  EC50: 0.5 µM
[2]; Table 8
  Neo/Bcl-xL: 7
[2]; Table 13
  Fold Select. (Neo/Bcl-xL): 7
[2]; [7]
  IC50: 0.5 µM

## Cc1cc(C)c(O)c(Cc2cc(Cl)cc(Cc3cc(C)cc(C)c3O)c2O)c1 [Compound 48167]
[1]; Table 13
  IC50: 5.6 µM
[2]; Table 13
  Fold Select. (Neo/Bcl-xL): 4
[2]; [7]
  IC50: 1.4 µM

## Cc1cc(Cc2cc(C)cc(C(C)(C)C)c2O)c(O)c(C(C)(C)C)c1 [Compound 7781]
[1]; Table 10
  IC50: 4.5 µM
[2]; Table 10
  Fold Select. (Neo/Bcl-XL): 2.8
[2]; [3]
  IC50: 1.6 µM

## Oc1ccc2ccccc2c1Cc1c(O)ccc2ccccc12 [Compound 5992]
[1]; Table 10
  IC50: 12.2 µM and 8 µM
[2]; [3]
  IC50: 3 µM and 4.4 µM

## O=C(O)c1cc(Cl)cc(Cc2cc(Cl)cc(C(=O)O)c2O)c1O [Compound 48684]
[2]; Table 11
  Fold Select. (Neo/Bcl-XL): 0

## CN(Cc1cc(Br)cc(Br)c1O)Cc1c(O)ccc2ccccc12 [Compound 88852]
[1]; Table 18, read-out: Neo
  EC50: 21.5 µM
[2]; Table 18
  Neo/Bcl-XL: 5.8
[2]; Table 18, read-out: Bcl-XL
  EC50: 3.7 µM

## Cc1cc(O)c(Sc2c(O)cc(C)c(Cl)c2C)c(C)c1Cl [Compound 9875]
[1]; Table 10
  IC50: 5.7 µM
[2]; Table 10
  Fold Select. (Neo/Bcl-XL): 6.3
[2]; [3]
  IC50: 0.9 µM

## Cc1cc(Cc2cc(Cc3cc(C)cc(C(C)(C)C)c3O)c(C)cc2C)c(O)c(C(C)(C)C)c1 [Compound 57725]
[2]; Table 13
  Fold Select. (Neo/Bcl-xL): −0

## CC(C)(C)c1ccc(O)c(Sc2cc(C(C)(C)C)ccc2O)c1 [Compound 2855]
[2]; Table 11
  Fold Select. (Neo/Bcl-XL): 0

## CC(=O)Nc1ccc(Sc2ccc(NC(C)=O)cc2O)c(O)c1 [Compound 4581]
[2]; Table 11
  Fold Select. (Neo/Bcl-XL): 0

## Cc1cc(Cc2cc(C)c(N)cc2N)c(N)cc1N [Compound 7215]
[2]; Table 11
  Fold Select. (Neo/Bcl-XL): 0

## Oc1c(Cl)cc(Cl)cc1Sc1cc(Cl)cc(Cl)c1O [Compound 47129]
[1]; Table 10
  IC50: 2.3 µM
[2]; Table 10
  Fold Select. (Neo/Bcl-XL): 4.6
[2]; [3]
  IC50: 0.5 µM

## Cc1cc(O)c(O)c(Oc2cc(C)cc(O)c2O)c1 [Compound 330927]
[2]; Table 10
  Fold Select. (Neo/Bcl-XL): 5
[2]; [3]
  IC50: 19.8 µM

## O=S(=O)(c1cc(Br)ccc1O)c1cc(Br)ccc1O [Compound 1050]
[1]; Table 10
  IC50: 10.5 µM
[2]; Table 10
  Fold Select. (Neo/Bcl-XL): 2.8
[2]; [3]
  IC50: 3.8 µM

## O=S(=O)(c1cc(Cl)ccc1O)c1cc(Cl)ccc1O [Compound 406932]
[1]; Table 10
  IC50: 57.2 µM
[1]; Table 15
  IC50: 57.2 µM
[2]; Table 10
  Fold Select. (Neo/Bcl-XL): 4.4
[2]; [3]
  IC50: 13.6 µM
[2]; Table 15
  Fold Selectivity (Neo/Bcl-XL): 4.4
[2]; [4]
  IC50: 13.6 µM

## O=[N+]([O-])c1ccc(S(=O)(=O)c2ccccc2)c2nonc12 [Compound 0219]
[2]; Table 6, TAMH cells overexpressing Bcl-xL (Tabx2s), read-out: 2S EC50
  EC50: 7.6 µM

## O=C(c1cc(Br)ccc1O)c1cc(Br)ccc1O [Compound 4631]
[1]; Table 10
  IC50: 14 µM
[2]; Table 10
  Fold Select. (Neo/Bcl-XL): 1.7
[2]; [3]
  IC50: 8.5 µM

## Cc1cccc(Cc2cccc(C)c2O)c1O [Compound 85476]
[1]; Table 10
  IC50: 55.3 µM
[2]; Table 10
  Fold Select. (Neo/Bcl-XL): 2.9
[2]; [3]
  IC50: 18.8 µM

## Oc1c(Cl)cc(Cl)cc1Sc1cc(Cl)cc(Cl)c1O [Compound 9872]
[1]; Table 10
  IC50: 7.5 µM
[2]; Table 10
  Fold Select. (Neo/Bcl-XL): 3.3
[2]; [3]
  IC50: 2.3 µM

## Cc1cc(Cc2cc(Br)ccc2O)c(O)c(Cc2cc(Br)ccc2O)c1 [Compound 0039]
[1]; [5]
  EC50: 2.9 µM
[2]; [6]
  EC50: 0.7 µM

## Oc1ccc(Sc2ccc(O)cc2O)c(O)c1 [Compound 59828]
[2]; Table 11
  Fold Select. (Neo/Bcl-XL): 0

## [O-][S+](c1cc(Cl)ccc1O)c1cc(Cl)ccc1O [Compound 24019]
[1]; Table 10
  IC50: 32.2 µM
[2]; Table 10
  Fold Select. (Neo/Bcl-XL): 5.7
[2]; [3]
  IC50: 5.6 µM

## O=[N+]([O-])c1ccc(S(=O)(=O)Cc2ccccc2)c2nonc12 [Compound 228148]
[1]; Table 8, read-out: TANH Neo
  EC50: 22.5 µM
[1]; Table 15
  IC50: 22.5 µM
[2]; Table 8, read-out: TAMH Bcl-xL
  EC50: 6 µM
[2]; Table 8
  Neo/Bcl-xL: 3.8
[2]; Table 15
  Fold Selectivity (Neo/Bcl-XL): 3.8
[2]; [4]
  IC50: 6 µM

## OCc1cc(Cl)cc(Cc2cc(Cl)cc(Cc3cc(Cl)cc(CO)c3O)c2O)c1O [Compound 48445]
[1]; Table 13
  IC50: 4.5 µM
[2]; Table 13
  Fold Select. (Neo/Bcl-xL): 2.5
[2]; [7]
  IC50: 1.8 µM

## CC(=O)c1cc(Cl)cc(Cc2cc(Cl)cc(Cc3cc(Cl)cc(C(C)=O)c3O)c2O)c1O [Compound 48698]
[1]; Table 13
  IC50: 5.7 µM
[2]; Table 13
  Fold Select. (Neo/Bcl-xL): 8.1
[2]; [7]
  IC50: 0.7 µM

## CN(Cc1cc(C(C)(C)C)cc(Br)c1O)Cc1cc(C(C)(C)C)cc(Br)c1O [Compound 48881]
[1]; Table 19, read-out: Neo
  EC50: 28 µM
[2]; Table 19
  Neo/Bcl-XL: 4.6
[2]; Table 19, read-out: Bcl-XL
  EC50: 6.1 µM

## CCc1cc(Cc2cc(CC)cc(C(C)(C)C)c2O)c(O)c(C(C)(C)C)c1 [Compound 7782]
[1]; Table 10
  IC50: 3.5 µM
[2]; Table 10
  Fold Select. (Neo/Bcl-XL): 1.7
[2]; [3]
  IC50: 2.1 µM

## O=[N+]([O-])c1ccc(S(=O)(=O)Cc2ccccc2)c([N+](=O)[O-])c1 [Compound 122657]
[1]; Table 15
  IC50: 13.5 µM
[2]; Table 15
  Fold Selectivity (Neo/Bcl-XL): 3.9
[2]; [4]
  IC50: 3.5 µM

## Cc1cc(Cc2cc(C)cc(C(C)(C)C)c2O)c(O)c(Cc2cc(C)cc(C(C)(C)C)c2O)c1 [Compound 62914]
[2]; Table 13
  Fold Select. (Neo/Bcl-xL): > 20 and 22.7

## Cc1cc(C)c(O)c(Cc2cccc(Cc3cc(C)cc(C)c3O)c2O)c1 [Compound 48168]
[2]; Table 13
  Fold Select. (Neo/Bcl-xL): 0

## CN(C)Cc1cc(Cl)cc(Cc2cc(Cl)cc(CN(C)C)c2O)c1O.Cl [Compound 39242]
[2]; Table 11
  Fold Select. (Neo/Bcl-XL): 0

## COc1ccccc1Cc1ccccc1OC [Compound 78834]
[2]; Table 11
  Fold Select. (Neo/Bcl-XL): 0

## Cc1cc(Sc2cc(C)cc(C(C)(C)C)c2O)c(O)c(C(C)(C)C)c1 [Compound 67488]
[2]; Table 10
  Fold Select. (Neo/Bcl-XL): 6.8
[2]; [3]
  IC50: 14.6 µM
